Measured values reported in US9826773B2, “Brazzen multiple variants of increased sweetness, and production method for same” (CHUNG-ANG UNIVERSITY INDUSTRY—ACADEMIC COOPERATION …, priority 2012, dated 2017).

Columns and labels:
human gustatory system = assay: Measurement of sweetness activity using the human gustatory system (threshold of initially sensing sweetness); assay type: in vivo; conditions: for Level of sweetness compared to sucrose (g/g): mass basis; for Level of sweetness compared to sucrose (g/g) / Level of sweetness compared to sucrose (molecular): sucrose = 1; for Level of sweetness compared to sucrose (molecular): molar basis; for times as sweet as sucrose in the same mass: rounded values of the text; for times as sweet as the wild-type brazzein in the same mass: relative to wild-type brazzein
Procedure: Since brazzein is not a sugar but a protein, sweetness may not be measured using a saccharimeter. Consequently, the activity was measured using the human gustatory system. Since the threshold values of initially sensing sweetness are different per person, the activity was measured by comparing the concentrations of initially sensing sweetness between a sugar solution and a brazzein solution. The subjects were composed of 10 men and 10 women, who were trained in advance. First, the standard sugar solution was sequentially tasted, and the concentration of initially sensing sweetness was checked. Brazzein was dissolved in distilled water (10.0 mg/mL) and diluted to set the concentration to 1 to 20 ng/mL, and the sweetness of the solution was tasted and the concentration of sensing sweetness as the threshold value was checked to measure the relative activity of sweetness among sugar, wild-type brazzein, and a brazzein variant. Specifically, the activity was measured as follows. Before the activity was measured, the subject was informed in advance of the test date and time to sense the taste in tiptop conditions, and was prohibited from drinking alcohol the day before the test date and eating food immediately before the test. The subject washed the palate with bottled water prepared, and then a sample according to the concentration of each kind was tasted in each of an amount of 100 μl sequentially from a low concentration to a high concentration. The resulting data were obtained by discarding dubious values through the Q test, minimizing the standard deviation, and calculating the average.

[1] = cited from earlier work; for thermal stability: background statement
[2] = same threshold expressed in molar concentration
[3] = trained panel of 10 men and 10 women, concentration of initially sensing sweetness, 100 μl samples tasted from low to high concentration

Row | Compound | Level of sweetness compared to sucrose (g/g) (human gustatory system) | Level of sweetness compared to sucrose (molecular) (human gustatory system) | Threshold value of sweetness experiment (human gustatory system; [2]) | Threshold value of sweetness experiment (human gustatory system; [3]) | solubility and pH stability in water ([1]; Gao et al. 1999) | thermal stability [1] | times as sweet as sucrose in the same mass (human gustatory system) | times as sweet as the wild-type brazzein in the same mass (human gustatory system)
1 | OC[C@H]1O[C@@](CO)(O[C@H]2O[C@H](CO)[C@@H](O)[C@H](O)[C@H]2O)[C@@H](O)[C@@H]1O [Sucrose, reference compound] | 1 | 1 | 58,000 μM | 2.0 g (100 mL)^−1 |  |  |  | 
2 | Brazzein: sweetener protein extracted from the fruit of Pentadiplandra brazzeana (Baillon) (QDKCKKVYENYPVSKCQLANQCNYDCKLDKHARSGECFYDEKRNLQCICDYCEY; UniProt P56552 1-54, looked up) |  |  |  |  | very high solubility and pH stability | very high thermal stability |  | 
3 | K4D_H30R_E35D_E40A: brazzein multiple variant, 4th Lys to Asp in tertiary variant H30R_E35D_E40A, SEQ ID NO. 14 (DKCDKVYENYPVSKCQLANQCNYDCKLAKRARSGDCFYDAKRNLQCICDYCEY; Brazzein Variant) | 2,000,000 | 36708861 | 0.00158 µM | 0.0000010 g (100 mL)^−1 |  |  | 2,000,000 times | 2,500 times
4 | K4D_H30R_E35D_E40D: brazzein multiple variant, 4th Lys to Asp in tertiary variant H30R_E35D_E40D, SEQ ID NO. 17 (DKCDKVYENYPVSKCQLANQCNYDCKLAKRARSGDCFYDDKRNLQCICDYCEY; Brazzein Variant) | 1,333,333 | 24545600 | 0.00236 µM | 0.0000015 g (100 mL)^−1 |  |  | 1,300,000 times | 1,670 times
5 | K4D_H30R_E35D_E40K: brazzein multiple variant, 4th Lys to Asp in tertiary variant H30R_E35D_E40K, SEQ ID NO. 11 (DKCDKVYENYPVSKCQLANQCNYDCKLAKRARSGDCFYDKKRNLQCICDYCEY; Brazzein Variant) | 1,598,481 | 28379848 | 0.00204 µM | 0.0000013 g (100 mL)^−1 |  |  | 1,500,000 times | 1,920 times
6 | K4D_H30R_E35D_E40R: brazzein multiple variant, 4th Lys to Asp in tertiary variant H30R_E35D_E40R, SEQ ID NO. 20 (DKCDKVYENYPVSKCQLANQCNYDCKLAKRARSGDCFYDRKRNLQCICDYCEY; Brazzein Variant) | 1,818,181 | 33687455 | 0.00172 µM | 0.0000011 g (100 mL)^−1 |  |  | 1,800,000 times | 2,270 times
7 | K4E_H30R_E35D_E40A: brazzein multiple variant, 4th Lys to Glu in tertiary variant H30R_E35D_E40A, SEQ ID NO. 15 (DKCEKVYENYPVSKCQLANQCNYDCKLAKRARSGDCFYDAKRNLQCICDYCEY; Brazzein Variant) | 2,000,000 | 36708861 | 0.00158 µM | 0.0000010 g (100 mL)^−1 |  |  | 2,000,000 times | 2,500 times
8 | K4E_H30R_E35D_E40D: brazzein multiple variant, 4th Lys to Glu in tertiary variant H30R_E35D_E40D, SEQ ID NO. 18 (DKCEKVYENYPVSKCQLANQCNYDCKLAKRARSGDCFYDDKRNLQCICDYCEY; Brazzein Variant) | 1,250,000 | 23062250 | 0.00251 µM | 0.0000016 g (100 mL)^−1 |  |  | 1,250,000 times | 1,560 times
9 | K4E_H30R_E35D_E40K: brazzein multiple variant, 4th Lys to Glu in tertiary variant H30R_E35D_E40K, SEQ ID NO. 12 (DKCEKVYENYPVSKCQLANQCNYDCKLAKRARSGDCFYDKKRNLQCICDYCEY; Brazzein Variant) | 1,666,666 | 30812500 | 0.00188 µM | 0.0000012 g (100 mL)^−1 |  |  | 1,700,000 times | 2,080 times
10 | K4E_H30R_E35D_E40R: brazzein multiple variant, 4th Lys to Glu in tertiary variant H30R_E35D_E40R, SEQ ID NO. 21 (DKCEKVYENYPVSKCQLANQCNYDCKLAKRARSGDCFYDRKRNLQCICDYCEY; Brazzein Variant) | 1,818,181 | 33761273 | 0.00172 µM | 0.0000011 g (100 mL)^−1 |  |  | 1,800,000 times | 2,270 times
11 | K4R_H30R_E35D_E40A: brazzein multiple variant, 4th Lys to Arg in tertiary variant H30R_E35D_E40A, SEQ ID NO. 16 (DKCRKVYENYPVSKCQLANQCNYDCKLAKRARSGDCFYDAKRNLQCICDYCEY; Brazzein Variant) | 2,857,143 | 52727273 | 0.0011 µM | 0.0000007 g (100 mL)^−1 |  |  | 2,900,000 times | 3,570 times
12 | K4R_H30R_E35D_E40D: brazzein multiple variant, 4th Lys to Arg in tertiary variant H30R_E35D_E40D, SEQ ID NO. 19 (DKCRKVYENYPVSKCQLANQCNYDCKLAKRARSGDCFYDDKRNLQCICDYCEY; Brazzein Variant) | 1,666,666 | 30860187 | 0.00188 µM | 0.0000012 g (100 mL)^−1 |  |  | 1,700,000 times | 2,080 times
13 | K4R_H30R_E35D_E40K: brazzein multiple variant, 4th Lys to Arg in tertiary variant H30R_E35D_E40K, SEQ ID NO. 13 (DKCRKVYENYPVSKCQLANQCNYDCKLAKRARSGDCFYDKKRNLQCICDYCEY; Brazzein Variant) | 2,000,000 | 37131600 | 0.00156 µM | 0.0000010 g (100 mL)^−1 |  |  | 2,000,000 times | 2,500 times
14 | K4R_H30R_E35D_E40R: brazzein multiple variant, 4th Lys to Arg in tertiary variant H30R_E35D_E40R, SEQ ID NO. 22 (DKCRKVYENYPVSKCQLANQCNYDCKLAKRARSGDCFYDRKRNLQCICDYCEY; Brazzein Variant) | 2,000,000 | 37284000 | 0.00156 µM | 0.0000010 g (100 mL)^−1 |  |  | 2,000,000 times | 2,500 times
15 | Monellin |  |  |  |  |  | low thermal stability |  | 
16 | WT-Brazzein: wild-type brazzein, molecular weight 6501 in Table 3 (QDKCKKVYENYPVSKCQLANQCNYDCKLDKHARSGECFYDEKRNLQCICDYCEY; UniProt P56552 1-54, looked up) [reference compound] | 800 | 15,082 | 3.846 µM | 0.0025 g (100 mL)^−1 |  |  |  | 
